Test results reported in patent US10100046B2, “Inhibitors of lysine specific demethylase-1” (Celgene Quanticel Research, Inc., priority 2014, dated 2018).

Tests used:
full-length human LSD1 = full-length human LSD1 (Homo sapiens (Human), UniProt O60341); test: In Vitro Enzyme Inhibition Assay—LSD-1 (TR-FRET); assay type: biochemical; conditions: H3K4me1-biotin labeled peptide
Method: This assay determines the ability of a test compound to inhibit LSD1 demethylase activity. E. coli expressed full-length human LSD1 (Accession number 060341) was purchased from Active Motif (Cat#31334).
The enzymatic assay of LSD1 activity is based on Time Resolved-Fluorescence Resonance Energy Transfer (TR-FRET) detection. The inhibitory properties of compounds to LSD1 were determined in 384-well plate format under the following reaction conditions: 0.1-0.5 nM LSD1, 50 nM H3K4me1-biotin labeled peptide (Anaspec cat #64355), 2 μM FAD in assay buffer of 50 mM HEPES, pH7.3, 10 mM NaCl, 0.005% Brij35, 0.5 mM TCEP, 0.2 mg/ml BSA. Reaction product was determined quantitatively by TR-FRET after the addition of detection reagent Phycolink Streptavidin-allophycocyanin (Prozyme) and Europium-anti-unmodified histone H3 lysine 4 (H3K4) antibody (PerkinElmer) in the presence of LSD1 inhibitor such as 1.8 mM of Tranylcypromine hydrochloride (2-PCPA) in LANCE detection buffer (PerkinElmer) to final concentration of 12.5 nM and 0.25 nM respectively.
The assay reaction was performed according to the following procedure: 2 μL of the mixture of 150 nM H3K4me1-biotin labeled peptide with 2 μL of 11-point serial diluted test compound in 3% DMSO were added to each well of plate, followed by the addition of 2 μL of 0.3 nM LSD1 and 6 μM of FAD to initiate the reaction. The reaction mixture was then incubated at room temperature for one hour, and terminated by the addition of 6 μL of 1.8 mM 2-PCPA in LANCE detection buffer containing 25 nM Phycolink Streptavidin-allophycocyanin and 0.5 nM Europium-anti-unmodified H3K4 antibody. Enzymatic reaction is terminated within 15 minutes if 0.5 LSD1 enzyme is used in the plate. Plates were read by EnVision Multilabel Reader in TR-FRET mode (excitation at 320 nm, emission at 615 nm and 665 nm) after 1 hour incubation at room temperature. A ratio was calculated (665/615) for each well and fitted to determine inhibition constant (IC50).
The ability of the compounds disclosed herein to inhibit LSD1 activity was quantified and the respective IC50 value was determined. Table 3 provides the IC50 values of various substituted heterocyclic compounds disclosed herein.

THP-1 (AML) cells = test: LSD1 CD11b Cellular Assay (flow cytometry); assay type: cell-based; conditions: Homo sapiens, 96 h; CD11b expression in THP-1 cells, 4 days
Method: To analyze LSD1 inhibitor efficacy in cells, a CD11b flow cytometry assay was performed. LSD1 inhibition induces CD11b expression in THP-1 (AML) cells which can be measured by flow cytometry. […] LSD1 test compounds were serially diluted in DMSO. The dilutions were added to each well accordingly to a final concentration of 0.2% DMSO. The cells were incubated at 37 degrees Celsius in 5% CO2 for 4 days. 250 μL of each well was transferred to a well in a 96 well round bottom plate. The plate was centrifuged at 1200 rpm at 4 degrees Celsius in a Beckman Coulter Alegra 6KR centrifuge for 5 minutes. The media was removed leaving the cells at the bottom of the wells. The cells were washed in 100 μL cold HBSS (Hank's Balanced Salt Solution) plus 2% BSA (Bovine Serum Albumin) solution and centrifuged at 1200 rpm at 4 degrees Celsius for 5 minutes. The wash was removed. […] The cells were centrifuged and washed two times in 100 μl HBSS plus 2% BSA. After the final spin the cells were resuspended in 100 μL HBSS plus 2% BSA containing 1 ug/mL DAPI (4′,6-diamidino-2-phenylindole). The cells were then analyzed by flow cytometry in a BD FACSAria machine. Cells were analyzed for CD11b expression. The percent of CD11b expressing cells for each inhibitor concentration was used to determine an IC50 curve for each compound analyzed.

SMILES	IC50 (full-length human LSD1) [nM]	IC50 (THP-1 (AML) cells) [nM]
N#Cc1ccc(-c2nc(N3CCC4CNCC4C3)cc(=O)n2-c2ccc(C3CC3)cc2)cc1F (stereo not drawn) [Example 28, 4-[4-(1,2,3,3a,4,6,7,7a-octahydropyrrolo[3,4-c]pyridin-5-yl)-1-(4-cyclopropylphenyl)-6-oxopyrimidin-2-yl]-2-fluorobenzonitrile]	≤ 100	< 100
N#Cc1ccc(-c2nc(N3CCC4(CCNC4)CC3)cc(=O)n2-c2ccc(C3CC3)cc2)cc1F [Example 29, 4-[1-(4-cyclopropylphenyl)-4-(2,8-diazaspiro[4.5]decan-8-yl)-6-oxopyrimidin-2-yl]-2-fluorobenzonitrile]	≤ 100	< 100
COc1ccc(-n2c(-c3ccc(C#N)c(F)c3)nc(N3CCC(N)CC3)cc2=O)cc1F [Example 30, 4-[4-(4-aminopiperidin-1-yl)-1-(3-fluoro-4-methoxyphenyl)-6-oxopyrimidin-2-yl]-2-fluorobenzonitrile]	≤ 100	100 to 1000
Cn1cc2cc(-n3c(-c4ccc(C#N)c(F)c4)nc(N4CCC(N)CC4)cc3=O)ccc2n1 [Example 31, 4-[4-(4-aminopiperidin-1-yl)-1-(2-methylindazol-5-yl)-6-oxopyrimidin-2-yl]-2-fluorobenzonitrile]	≤ 100	100 to 1000
N#Cc1ccc(-c2nc(N3CCC(N)CC3)cc(=O)n2-c2ccc(C3CC3)c(F)c2)cc1F [Example 33, 4-[4-(4-aminopiperidin-1-yl)-1-(4-cyclopropyl-3-fluorophenyl)-6-oxopyrimidin-2-yl]-2-fluorobenzonitrile]	≤ 100	< 100
Cn1cc2cc(-c3sc(N4CCC(N)CC4)nc3-c3ccc(C#N)cc3)ccc2n1 [Example 34]	≤ 100	< 100
